Read-outs that look alike come from different tables or passages of the source.
Tests used:
human CB1 receptors = human CB1 receptors (Homo sapiens (Human), UniProt P21554); assay: cAMP assay, CHO cells expressing human CB1 receptors; assay type: cell-based
Description: (§1) CHO cells expressing human CB1 or CB2 receptors are seeded 17-24 hours prior to the experiment 50.000 cells per well in a black 96 well plate with flat clear bottom (Corning Costar #3904) in DMEM (Invitrogen No. 31331), 1×HT supplement, with 10% fetal calf serum and incubated at 5% CO2 and 37° C. in a humidified incubator. The growth medium was exchanged with Krebs Ringer Bicarbonate buffer with 1 mM IBMX and incubated at 30° C. for 30 min. Compounds were added to a final assay volume of 100 μl and incubated for 30 min at 30° C. Using the cAMP-Nano-TRF detection kit the assay (Roche Diagnostics) was stopped by the addition of 50 μl lysis reagent (Tris, NaCl, 1.5% Triton X100, 2.5% NP40, 10% NaN3) and 50 μl detection solutions (20 μM mAb Alexa700-cAMP 1:1, and 48 μM Ruthenium-2-AHA-cAMP) and shaken for 2 h at room temperature. The time-resolved energy transfer is measured by a TRF reader (Evotec Technologies GmbH), equipped with a ND:YAG laser as excitation source. The plate is measured twice with the excitation at 355 nm and at the emission with a delay of 100 ns and a gate of 100 ns, total exposure time 10 s at 730 (bandwidth 30 nm) or 645 nm (bandwidth 75 nm), respectively. The FRET signal is calculated as follows: FRET=T730-Alexa730-P(T645-B645) with P=Ru730-B730/Ru645-B645, where T730 is the test well measured at 730 nM, T645 is the test well measured at 645 nm, B730 and B645 are the buffer controls at 730 nm and 645 nm, respectively. cAMP content is determined from the function of a standard curve spanning from 10 μM to 0.13 nM cAMP.
(§2) EC50 values were determined using Activity Base analysis (ID Business Solution, Limited). The EC50 values for a wide range of cannabinoid agonists generated from this assay were in agreement with the values published in the scientific literature.

human CB2 receptors = human CB2 receptors (Homo sapiens (Human), UniProt P34972); assay: cAMP assay, CHO cells expressing human CB2 receptors; assay type: cell-based; conditions: functional cAMP assay, read-out: CB2 hcAMP EC50
human CB2 receptors, sequence (P34972 whole entry): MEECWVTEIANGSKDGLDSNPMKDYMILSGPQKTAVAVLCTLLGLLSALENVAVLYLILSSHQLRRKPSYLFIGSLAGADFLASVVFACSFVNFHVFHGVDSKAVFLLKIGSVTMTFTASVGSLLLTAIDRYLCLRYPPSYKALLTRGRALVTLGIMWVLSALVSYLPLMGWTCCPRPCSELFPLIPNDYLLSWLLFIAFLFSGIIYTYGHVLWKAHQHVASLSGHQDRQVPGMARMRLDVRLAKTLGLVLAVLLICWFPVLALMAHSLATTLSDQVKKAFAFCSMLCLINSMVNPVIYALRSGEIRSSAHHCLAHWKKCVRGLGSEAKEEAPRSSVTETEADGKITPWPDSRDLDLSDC
Description: as §1, §2

[1] = functional cAMP assay, CHO cells expressing human CB1, read-out: CB1 hcAMP EC50

human CB1 receptors, sequence (P21554 whole entry): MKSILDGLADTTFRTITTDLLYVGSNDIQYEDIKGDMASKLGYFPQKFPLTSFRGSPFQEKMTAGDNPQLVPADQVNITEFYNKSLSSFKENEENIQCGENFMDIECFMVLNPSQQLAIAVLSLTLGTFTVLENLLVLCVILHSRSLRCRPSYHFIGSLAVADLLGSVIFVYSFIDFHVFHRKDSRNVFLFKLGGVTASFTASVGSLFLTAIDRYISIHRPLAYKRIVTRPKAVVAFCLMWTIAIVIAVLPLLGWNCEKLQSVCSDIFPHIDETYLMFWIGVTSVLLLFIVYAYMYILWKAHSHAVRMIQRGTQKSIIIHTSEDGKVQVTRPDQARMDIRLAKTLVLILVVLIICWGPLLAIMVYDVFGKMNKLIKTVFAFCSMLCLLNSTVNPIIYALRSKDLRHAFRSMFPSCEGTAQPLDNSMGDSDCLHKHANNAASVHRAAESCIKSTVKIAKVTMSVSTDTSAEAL

Compound	EC50 (human CB1 receptors; [1]) [µM]	EC50 (human CB2 receptors) [nM]	EC50 (human CB1 receptors) [µM]
CC(C)(C)c1nc(-c2ccccc2F)c2nnn(Cc3ccccc3Cl)c2n1 [Example 4, 5-tert-butyl-3-[(2-chlorophenyl)methyl]-7-(2-fluorophenyl)triazolo[4,5-d]pyrimidine]	> 10	65.2	–
Cn1nccc1-c1nc(C(C)(C)C)nc2c1nnn2CC1(C)COC1 [Example 23, 5-tert-butyl-3-[(3-methyloxetan-3-yl)methyl]-7-(2-methylpyrazol-3-yl)triazolo[4,5-d]pyrimidine]	> 10	445	–
COc1ccc(-c2nc(C(C)(C)C)nc3c2nnn3Cc2ccccc2Cl)cc1 [Example 3, 5-tert-butyl-3-[(2-chlorophenyl)methyl]-7-(4-methoxyphenyl)triazolo[4,5-d]pyrimidine]	> 10	239	–
CC(C)(C)c1nc2c(nnn2Cc2ccccc2Cl)c([C@]2(O)C[C@H](C(F)F)C2)n1 [Example 40, Trans-1-[5-tert-Butyl-3-[(2-chlorophenyl)methyl]triazolo[4,5-d]pyrimidin-7-yl]-3-(difluoromethyl)cyclobutanol]	1.81	9.8	–
CC(C)(C)c1nc(C2(O)CCCC2)c2nnn(Cc3ccccc3Cl)c2n1 [Example 34, 1-[5-tert-Butyl-3-[(2-chlorophenyl)methyl]triazolo[4,5-d]pyrimidin-7-yl]cyclopentanol]	> 10	35.3	–
Cc1oncc1-c1nc(C(C)(C)C)nc2c1nnn2Cc1nnnn1C [Example 27, 4-[5-tert-butyl-3-[(1-methyltetrazol-5-yl)methyl]triazolo[4,5-d]pyrimidin-7-yl]-5-methyl-1,2-oxazole]	> 10	515	–
Cn1nnnc1Cn1nnc2c(-c3cc[nH]n3)nc(C(C)(C)C)nc21 [Example 26, 5-tert-butyl-3-[(1-methyltetrazol-5-yl)methyl]-7-(1H-pyrazol-3-yl)triazolo[4,5-d]pyrimidine]	> 10	578	–
CC(C)(C)c1nc2c(nnn2Cc2ccccc2Cl)c([C@]2(O)C[C@@H](C(F)F)C2)n1 [Example 41, Cis-1-[5-tert-Butyl-3-[(2-chlorophenyl)methyl]triazolo[4,5-d]pyrimidin-7-yl]-3-(difluoromethyl)cyclobutanol]	> 10	30.5	–
CC(C)(C)c1nc(C2(O)CCCCCCC2)c2nnn(Cc3ccccc3Cl)c2n1 [Example 37, 1-[5-tert-Butyl-3-[(2-chlorophenyl)methyl]triazolo[4,5-d]pyrimidin-7-yl]cyclooctanol]	–	126	> 10
Cc1nnc(Cn2nnc3c(-c4ccnn4C)nc(C(C)(C)C)nc32)o1 [Example 15, 2-[[5-tert-butyl-7-(2-methylpyrazol-3-yl)triazolo[4,5-d]pyrimidin-3-yl]methyl]-5-methyl-1,3,4-oxadiazole]	> 10	317	–
Cn1nnnc1Cn1nnc2c(-c3ncc[nH]3)nc(C(C)(C)C)nc21 [Example 28, 5-tert-butyl-7-(1H-imidazol-2-yl)-3-[(1-methyltetrazol-5-yl)methyl]triazolo[4,5-d]pyrimidine]	> 10	12.5	–
CC(C)(C)c1nc(C2=CCCC2)c2nnn(Cc3ccccc3Cl)c2n1 [Example 44, 5-tert-Butyl-3-[(2-chlorophenyl)methyl]-7-(cyclopenten-1-yl)triazolo[4,5-d]pyrimidine]	> 10	4	–
CC(C)(C)c1nc(C2(O)CCC2)c2nnn(Cc3ccccc3)c2n1 [Example 31, 1-(3-Benzyl-5-tert-butyltriazolo[4,5-d]pyrimidin-7-yl)cyclobutan-1-ol]	0.645	4.5	–
CC(C)(C)c1nc(-c2ccc(F)cc2)c2nnn(Cc3ccccc3Cl)c2n1 [Example 2, 5-tert-butyl-3-[(2-chlorophenyl)methyl]-7-(4-fluorophenyl)triazolo[4,5-d]pyrimidine]	> 10	28.5	–
